Consider three molecules from US20140011700A1 (Bristol-Myers Squibb Company, published 2014).

In general, Kd refers to the constant that tells how readily two partners part at equilibrium.

The subject of series [1] is A/WSN/33. It is filed as cell-based.
For series [2], the system named is H3N2 (A/Brisbane/10/2007). It counts as cell-based.
Series [3] deals with H1N1 (A/CA/07/2009). It counts as cell-based.
Series [4] concerns H1N1 (A/SolomonIslands/3/2006). It is filed as cell-based. As to conditions: read-out: A/Solomon-Islands/3/2006 (EC50).
The target of series [5] is NP (nucleoprotein, A/WSN/33) (Influenza A virus, UniProt P15682).
Series [6] concerns the target Influenza A nucleoprotein (NP) (Influenza A virus (A/WSN/33, H1N1), UniProt P15682 P15682:8-498). Briefly: SPR. The note with it: tags: N-terminal hexahistidine (pET28A), expressed in E. coli Rosetta II (DE3); label: 5'-biotin.

As to `Cc1cc(Br)cnc1N1CCN(C(=O)c2c(-c3ccccc3Cl)noc2C)CC1` [Compound D], the EC50 was 1.02 ± 1.8 µM in series [1], greater than 20 µM in series [2], greater than 20 µM in series [3] and 2.8 ± 0.53 µM in series [4]. In addition, the “% Pd (polydispersity)” value in series [5] stood at 13.5%. Besides, in series [5], the “Rh (nm), hydrodynamic radius” value is 8.9 ± 0.2 nm.
As for `COc1ccccc1-c1noc(C)c1C(=O)N1CCN(c2ccc([N+](=O)[O-])cc2Cl)CC1` [Compound B], the values for the EC50 in series [2], in series [3] and in series [4] were 7.31 ± 1.8 µM, greater than 20 µM and 0.66 ± 0.22 µM, respectively. For the same molecule, the “% Pd (polydispersity)” value in series [5] was found to be 10.2%. The “Rh (nm), hydrodynamic radius” value in series [5] was determined as 8.2 ± 0.3 nm.

B1: biotinylated 2'-O-methylated RNA oligonucleotide (ssRNA)
RNA: UAGAAACAAGGGUGUUUUUUCAGAUCUAUUAAACUUCACCCUGCUUUUGCU
modifications: 2'-OMe (stated as 2-O-methylated, positions not specified)
The molecule B1 returned a Kd in series [6] of 0.0112 µM. That is a double-digit nanomolar value.
